Source: PubChem BioAssay (NCI)
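All cell lines were grown in 96-well plates and treated with compound for 48 hours. TGI: total growth inhibition.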

Experiments:
Assay in all cases: NCI-60 cell line screen, 48 h
BT-549 breast = test system: BT-549 breast
SNB-19 CNS = test system: SNB-19 CNS
HOP-92 NSCLC = test system: HOP-92 NSCLC
T-47D breast = test system: T-47D breast
UACC-62 melanoma = test system: UACC-62 melanoma
SF-295 CNS = test system: SF-295 CNS
SW-620 colon = test system: SW-620 colon
OVCAR-4 ovarian = test system: OVCAR-4 ovarian
SK-MEL-5 melanoma = test system: SK-MEL-5 melanoma
HS 578T breast = test system: HS 578T breast
786-0 renal = test system: 786-0 renal
NCI-H522 lung = test system: NCI-H522 lung
CCRF-CEM leukemia = test system: CCRF-CEM leukemia
NCI-H23 lung = test system: NCI-H23 lung
NCI/ADR-RES ovarian = test system: NCI/ADR-RES ovarian
LOX IMVI melanoma = test system: LOX IMVI melanoma
MALME-3M melanoma = test system: MALME-3M melanoma
HL-60(TB) leukemia = test system: HL-60(TB) leukemia
COLO 205 colon = test system: COLO 205 colon
SK-MEL-28 melanoma = test system: SK-MEL-28 melanoma
NCI-H226 lung = test system: NCI-H226 lung
A498 renal = test system: A498 renal
SNB-75 CNS = test system: SNB-75 CNS
CAKI-1 renal = test system: CAKI-1 renal
KM12 colon = test system: KM12 colon
OVCAR-8 ovarian = test system: OVCAR-8 ovarian
SF-539 CNS = test system: SF-539 CNS
M14 melanoma = test system: M14 melanoma
SN12C renal = test system: SN12C renal
EKVX NSCLC = test system: EKVX NSCLC
SF-268 CNS = test system: SF-268 CNS
UO-31 renal = test system: UO-31 renal
PC-3 prostate = test system: PC-3 prostate
HCT-116 colon = test system: HCT-116 colon
MOLT-4 leukemia = test system: MOLT-4 leukemia
MDA-MB-231 breast = test system: MDA-MB-231 breast
HCT-15 colon = test system: HCT-15 colon
NCI-H460 lung = test system: NCI-H460 lung
HOP-62 NSCLC = test system: HOP-62 NSCLC
MDA-MB-435 = test system: MDA-MB-435
A549 NSCLC = test system: A549 NSCLC
SK-MEL-2 melanoma = test system: SK-MEL-2 melanoma
RXF 393 renal = test system: RXF 393 renal
U251 CNS = test system: U251 CNS
TK-10 renal = test system: TK-10 renal
RPMI-8226 leukemia = test system: RPMI-8226 leukemia
MCF7 breast = test system: MCF7 breast
HT29 colon = test system: HT29 colon
MDA-N = test system: MDA-N
SK-OV-3 ovarian = test system: SK-OV-3 ovarian
DU-145 prostate = test system: DU-145 prostate
ACHN renal = test system: ACHN renal
IGROV1 ovarian = test system: IGROV1 ovarian
OVCAR-5 ovarian = test system: OVCAR-5 ovarian
OVCAR-3 ovarian = test system: OVCAR-3 ovarian
SR leukemia = test system: SR leukemia

Measured: TGI

NC(=O)C1CCCNC1 (stereo unspecified)
> 100 µM: BT-549 breast | SNB-19 CNS | HOP-92 NSCLC | T-47D breast | UACC-62 melanoma | SF-295 CNS | SW-620 colon | OVCAR-4 ovarian | SK-MEL-5 melanoma | HS 578T breast | 786-0 renal | NCI-H522 lung | CCRF-CEM leukemia | NCI-H23 lung | NCI/ADR-RES ovarian | LOX IMVI melanoma | MALME-3M melanoma | HL-60(TB) leukemia | COLO 205 colon | SK-MEL-28 melanoma | NCI-H226 lung | A498 renal | SNB-75 CNS | CAKI-1 renal | KM12 colon | OVCAR-8 ovarian | SF-539 CNS | M14 melanoma | SN12C renal | EKVX NSCLC | SF-268 CNS | UO-31 renal | PC-3 prostate | HCT-116 colon | MOLT-4 leukemia | MDA-MB-231 breast | HCT-15 colon | NCI-H460 lung | HOP-62 NSCLC | MDA-MB-435 | A549 NSCLC | SK-MEL-2 melanoma | RXF 393 renal | U251 CNS | TK-10 renal | RPMI-8226 leukemia | MCF7 breast | HT29 colon | MDA-N | SK-OV-3 ovarian | DU-145 prostate | ACHN renal | IGROV1 ovarian | OVCAR-5 ovarian | OVCAR-3 ovarian | SR leukemia
